The results in this text go back to patent US12459940B2, “Oxazole compound as multi-targeted inhibitor of IRAK4 and BTK” (SHANGHAI FOSUN PHARMACEUTICAL INDUSTRIAL DEVELOPMENT CO., …, priority 2019, dated 2025).

Test [1] relates to OCI-LY10 human B-cell lymphoma cells. The test can be described thus: OCI-LY10 cell proliferation inhibition (CellTiter-Glo). It is filed as cell-based. Particulars: OCI-Ly10, 72 h, treated for 3 days. On the procedure:
OCI-LY10 human B-cell lymphoma cells were cultured in a 37° C., 5% CO2 incubator. The composition of medium was IMDM (GIBCO, Cat #12440053); the supplementary compositions were 20% FBS (Hyclone, Cat #SH30084.03); 1% PenStrep (Thermo, Cat #SV30010).
(§1) The tumor cell lines OCI-LY10 and TMD8 were used to detect the effect of the compound on inhibiting tumor cell proliferation in vitro. The tumor cell line was cultured in a 37° C., 5% CO2 incubator according to the culture conditions shown, and passaged regularly, then the cells in the logarithmic growth phase were taken, counted, and spread in a 96-well plate (the cells in each well were adjusted to an appropriate concentration, a total of […] per well was added). After incubating overnight in a 37° C., 5% CO2 incubator, drugs with different concentration gradients (10 μL of drug solution was added) were added and treated for 3 days, then 50 μL of CellTiter-Glo working solution was added to each well, and the cell plate was wrapped with aluminum foil to avoid light. The culture plate was shaken on an orbital shaker for 2 minutes to induce cell lysis, and placed at room temperature for 10 minutes to stabilize the luminescence signal, then the luminescence signal was detected on the 2104 EnVision plate reader.
(§2) The Inhibition rate (IR) of the tested compound was calculated using the following formula: IR (%)=(1−(RLU compound−RLU blank control)/(RLU solvent control−RLU blank control))*100%.
(§3) The inhibition rates of different concentrations of the compounds were calculated in Excel, and then the inhibition curves were made by GraphPad Prism software and the related parameters were calculated, including the minimum inhibition rate, the maximum inhibition rate and IC50.
On the technique in general: ATP-based viability assays read luminescence as a measure of living cells.

For test [2], the system named is OCI-LY3 cell line. Briefly: OCI-LY3 cell proliferation inhibition (CTG). It is filed as cell-based. Conditions: Homo sapiens, incubated for 72 hours. On the procedure:
The tumor cell line used in this experiment was provided by Nanjing Cobioer Biotechnology Co., Ltd. See Table 13 below for specific information.
The tumor cell lines OCI-LY3 were used to detect the effect of the compound on inhibiting tumor cell proliferation in vitro. The OCI-LY3 cell line was cultured in the corresponding medium at 37° C. and 5% CO2, and the logarithmic growth phase cells were used in the experimental plating. The cells were collected and centrifuged at 800 rpm for 5 minutes, and the culture medium was re-suspended and spread in a 96-well plate. After incubating overnight in a 37° C., 5% CO2 incubator, the cells with different concentration gradients (10 μL of prepared diluent of the tested compound) were incubated for 72 hours, and the cell culture plates were incubated with CTG reagent at room temperature and away from light for 30 minutes, and then recovered to room temperature. 100 μL/hole of CTG solution was added into the biosafety cabinet away from light, and the plate shaker was shaken and mixed evenly away from light for 2 minutes, and incubated at room temperature away from light for 10 minutes. The luminescence values were read and recorded using the Perkin Elmer Envision 2104 MuLtilabel Reader.
The results of luminescence values measured at each drug concentration were normalized with the luminescence values of the blank control group, and the ratio of this value to the DMSO group was taken as the cell inhibition rate (%). Using GraphPad software, the logarithm of drug concentration (log drug concentration) versus inhibition rate was plotted, and the software automatically fitted and calculated IC50 value and 95% confidence limit value by log (inhibitor) vs. normalized response algorithm of nonlinear regression.

Test [3] addresses T1, human IRAK4 (Homo sapiens, UniProt Q9NWZ3).
T1 construct: purchased Reaction Biology Corp
T1 sequence (Q9NWZ3 1-460): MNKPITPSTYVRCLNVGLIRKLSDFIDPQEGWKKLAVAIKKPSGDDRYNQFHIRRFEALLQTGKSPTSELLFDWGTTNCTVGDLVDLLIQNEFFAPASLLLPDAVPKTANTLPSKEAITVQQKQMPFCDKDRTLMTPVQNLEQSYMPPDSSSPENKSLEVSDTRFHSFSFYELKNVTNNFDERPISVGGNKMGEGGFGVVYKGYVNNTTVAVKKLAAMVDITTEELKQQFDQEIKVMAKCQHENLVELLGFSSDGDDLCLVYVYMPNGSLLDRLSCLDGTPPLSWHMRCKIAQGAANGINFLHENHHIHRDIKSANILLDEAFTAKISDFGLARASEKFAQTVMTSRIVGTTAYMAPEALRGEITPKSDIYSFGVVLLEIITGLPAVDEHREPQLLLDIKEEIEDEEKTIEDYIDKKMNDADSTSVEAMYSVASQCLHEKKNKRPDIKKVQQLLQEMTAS
The test can be described thus: In vitro IRAK4 kinase activity, 33P isotope-labeled kinase activity assay (Reaction Biology Corp). In kind it is biochemical. Particulars: 33P-ATP, 120 minutes at room temperature; read-out: IRAK4/IC50. The protocol: The IC50 values were determined using ^33P isotope-labeled kinase activity assay (Reaction Biology Corp) to evaluate the inhibitory ability of the tested compounds on human IRAK4.
Buffer conditions: 20 mM Hepes (pH 7.5), 10 mM MgCl2, 1 mM EGTA, 0.02% Brij35, 0.02 mg/mL BSA, 0.1 mM Na3VO4, 2 mM DTT, 1% DMSO.
Test procedure: At room temperature, the tested compound was dissolved in DMSO to prepare a 10 mM solution for later use. The substrate was dissolved in a newly prepared buffer solution, and the tested IRAK4 kinase was added thereto and mixed evenly. The DMSO solution dissolved with the tested compound was added to the above reaction mixture mixed evenly using acoustic technique (Echo 550). After incubation for 15 minutes, ^33P-ATP was added to initiate the reaction.

The subject of test [4] is TMD8 human B-cell lymphoma cells. Briefly: TMD-8 cell proliferation inhibition (CellTiter-Glo). In kind it is cell-based. Particulars: TMD8, 72 h, treated for 3 days. On the procedure: TMD8 human B-cell lymphoma cells were cultured in a 37° C., 5% CO2 incubator. The composition of medium was RPMI1640 (GIBCO, Cat #22400-089); the supplementary compositions were 10% FBS (Hyclone, Cat #SH30084.03); 1% PenStrep (Thermo, Cat #SV30010).
as §1, §2, §3

For `Cc1cc(-c2nc(C(=O)Nc3cn4cc(CCC(C)(C)O)nc4cc3N3CCCCC3)co2)ccn1` [WX001], the IC50 in test [1] was 128 nM; in test [2], 1290 nM; in test [3], 1 nM; in test [4], 300 nM.
